# Values of other authors, collected in US20070172525A1, “Anti-diabetic combinations” (priority 2007, published 2007).
# How the values were obtained:
# [1] = oral
# patients with T2DM [2] = test system: patients with T2DM
# patients with T2DM [3] = test system: patients with T2DM; remark: listed apart in the source
# patients with T2DM [4] = test system: patients with T2DM; remark: listed apart in the source
# [5] = monotherapy, 100 or 200 mg daily
# [6] = sitagliptin 100 mg daily added to metformin
Structure (SMILES),Time to complete gastrointestinal absorption after ingestion [1] [h],Weight gain (patients with T2DM [2]; 24-week monotherapy studies),HbA1C (patients with T2DM [2]; [5]),Hypoglycemia (patients with T2DM [2]; [5]),"Patients achieving a HbA1C of <7% (patients with T2DM [3]; sitagliptin 100 mg daily added to at least 1,500 mg per day of metformin, mean HbA1C of 8%) [%]",Fasting glucose (patients with T2DM [3]; [6]),Mean placebo-subtracted reduction in HbA1C (patients with T2DM [3]; [6]) [%],"Patients achieved a HbA1C of <7% (patients with T2DM [4]; 24 weeks, sitagliptin 100 mg daily plus pioglitazone versus pioglitazone alone) [%]","Mean HbA1C reduction (patients with T2DM [4]; sitagliptin 100 mg daily added to pioglitazone (30 or 45 mg daily), 24 weeks, mean HbA1C 8.1%) [%]",Rates of hypoglycemia or weight gain relative to pioglitazone alone (patients with T2DM [4]; sitagliptin added to pioglitazone)
"CN(C)C(=N)N=C(N)N [Conventional Metformin, Metformin]",≤ 6,,,,,,,,,
N[C@@H](CC(=O)N1CCn2c(nnc2C(F)(F)F)C1)Cc1cc(F)c(F)cc1F [Sitagliptin],,no significant weight gain,significantly reduced,no significant increase,47,significant reductions,0.65,45.4,0.7,not associated with increased rates
